According to patent US4507314A, “Drug for treating affections provoked by a too high histamine level, of the gastroduodenal mucosa and allergic affections” (Midit, Societe Fiduciaire, priority 1983, dated 1985):
Where two headings read alike, the source gives them in different places.

Tests used:
[1] = system: histamine level of the plasma
Description: (§1) Photographs of the ulcer and biopsies of the stomach mucosa were taken before and after each week of treatment.

[2] = system: histamine levels in the fundus, corpus and antrum mucosa; settings: 4 weeks
Description: as §1

[3] = system: gastric ulcers induced in rats by immobilisation; settings: intraperitoneal; expressed in terms of dry (+)-catechin; immobilised 12 hours
Experimental: (a) on ulcers induced by stress caused by immobilization: After one week adaptation to the environment, female rats, (30 animals per group, 5 per cage), were immobilised during 12 hours by wrapping them, under narcosis with ether, in a plaster bandage.
After sacrifice of the animals, the dissected stomach was visually inspected and the lesions of the mucosa were scored according to their number and their intensity.
The products to be tested were administered, immediately before the test, by intraperitoneal injection of 2 ml of a freshly prepared saline solution. The doses tested varied from 0.1 to 50 mg/kg. The controls received 2 ml of saline.

[4] = system: histamine content in the lungs; settings: 30 mg/kg intraperitoneal
[5] = system: histamine content in rat stomach mucosa; settings: 30 mg/kg intraperitoneal
[6] = system: rat peritoneal mastocytes; settings: 10^-50 M (so in the source); 48/80 stimulated; 37° C., 10 minutes
[7] = system: histamine level in lung tissue; settings: 30 mg/kg per os, 3 times a day during 3 days; five hours after the last treatment
Experimental: The drug was administered per os as a suspension in carboxymethyl cellulose (1% in water).

human duodenal ulcer = settings: after 1 month of treatment, 1500 mg daily
Description: as §1

intragastric pH = settings: in vivo
Description: as §1

[8] = system: stress induced gastric ulcers; settings: 30 mg/kg oral, 3 times a day during 3 days; immobilisation 12 hours; control group 38%
Experimental: The tested product was given 3 times a day during the 3 days preceding the experiment. The last administration was given 1 hour before immobilisation of the rats during 12 hours.

[9] = system: histamine level of the mucosa of the fundus, of the corpus and of the antrum; settings: 3 days, healthy persons
leucocytes = settings: preincubation 10 minutes at 37° C., pollen or house dust 30 minutes
Experimental: Then the histamin level was measured in the leucocyte suspension and the supernatant liquid and compared to the values obtained from the controls.

[10] = system: necrosis of the gastric mucosa induced by acetic acid; settings: 150 mg/kg orally, twice a day during 5 days
Experimental: In rats fasted for 24 hours, necrosis of the gastric mucosa was induced by intra-gastric administration of acetic acid (1 ml at 20%) one hour before treatment.
Accordingly the rats were sacrified, the stomach mucosa was photographed and the lesions were scored.

histidine decarboxylase = target: T1, histidine decarboxylase (Oryctolagus cuniculus, UniProt G1TCH4); assay: inhibition of histidine decarboxylase extracted from rabbit stomach, in vitro; settings: read-out: IC50, inhibition of histidine decarboxylase, enzyme extracted from rabbit stomach
T1 sequence (G1TCH4 1-661): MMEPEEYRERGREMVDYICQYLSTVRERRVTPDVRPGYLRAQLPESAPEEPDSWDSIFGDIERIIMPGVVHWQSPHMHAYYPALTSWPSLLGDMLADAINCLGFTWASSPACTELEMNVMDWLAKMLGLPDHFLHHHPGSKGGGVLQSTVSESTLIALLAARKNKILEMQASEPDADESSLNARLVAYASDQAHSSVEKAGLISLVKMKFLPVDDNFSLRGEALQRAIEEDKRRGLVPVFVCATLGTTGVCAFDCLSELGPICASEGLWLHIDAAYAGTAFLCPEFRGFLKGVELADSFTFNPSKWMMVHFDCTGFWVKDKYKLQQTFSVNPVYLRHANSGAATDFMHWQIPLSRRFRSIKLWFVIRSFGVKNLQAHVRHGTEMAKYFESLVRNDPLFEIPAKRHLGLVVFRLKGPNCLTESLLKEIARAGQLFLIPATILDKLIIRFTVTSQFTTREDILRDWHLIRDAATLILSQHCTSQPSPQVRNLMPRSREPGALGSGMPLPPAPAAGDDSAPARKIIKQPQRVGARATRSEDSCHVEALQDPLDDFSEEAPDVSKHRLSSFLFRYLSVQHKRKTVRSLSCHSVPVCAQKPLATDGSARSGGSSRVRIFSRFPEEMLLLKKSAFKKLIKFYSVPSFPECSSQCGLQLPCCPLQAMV

[11] = system: rat peritoneal mastocytes; settings: 30 mg/kg per os, 3 times a day during 3 days; 0.5 μg/ml compound 48/80, 10 minutes at 37° C.
[12] = 1500 mg daily, duodenal ulcer patients

CN/C(=N/CCSCc1nc[nH]c1C)NC#N [cimetidine, reference compound]
effect on the histamine levels in the plasma ([1]; 800 mg cimetidine daily, 4 weeks): no notable effect or induced an increase
increase of the histamine levels in the plasma ([1]; in some cases, 800 mg cimetidine daily, 4 weeks): more than 10%
effect on the histamine levels in the stomach mucosa ([2]; 800 mg cimetidine daily): no notable effect or induced an increase
increase of the histamine levels in the stomach mucosa ([2]; in some cases, 800 mg cimetidine daily): more than 10%

(+)-catechin ascorbolysinate
ED50 in the gastric ulcers induced in rats by immobilisation [3]: 1.5 mg/kg

(+)-catechin hydrochlorolysinate
decrease of the histamine content in the lungs [4]: 38%
decrease of the histamine content in rat stomach mucosa [5]: 33%
inhibition of release of histamine from rat peritoneal mastocytes [6]: 27%
decrease of the histamine level in the homogenized lung tissue compared to the control group [7]: 38%
mean histamine level of the plasma after treatment ([1]; 1500 mg daily, decreased from 0.7 (±0.3) ng/ml, observed after one week, constant during the following 3 weeks): 0.3 (±0.1) ng/ml
ulcer diameter of the other (not fully recovered) patients (human duodenal ulcer): decreased significantly
patients fully recovered (human duodenal ulcer; out of 11): 7 patients
decrease of the histamine levels in the fundus, corpus and antrum mucosa [2, 12]: ~20%
decrease of the number of mastocytes in the fundus, corpus and antrum mucosa [2, 12]: ~20%
effect on the intragastric pH (intragastric pH): no effect
proportion of rats with severe lesions [8]: 15%
number of mastocytes ([9]; 500, 1000 or 1500 mg per day per os, same way as the histamine level): decreased in the same way
decrease of the histamine level of the mucosa of the fundus, of the corpus and of the antrum ([9]; highest dose (1500 mg per day), per os, dose dependent): 30%
release inhibition, leucocytes (leucocytes; 10^-5 M): 45%
release inhibition, leucocytes (leucocytes; 10^-6 M): 45%
ED50 in the gastric ulcers induced in rats by immobilisation [3]: 5 mg/kg
reduction of the number of animals with severe lesions [10]: 50%
IC50 (histidine decarboxylase): 100 µM
decrease of histamine release of the mastocytes compared to the controls [11]: 22%
